Tests used:
lipoamide = compound: NC(=O)CCCCC1CCSS1 [lipoamide]; assay: thermal stability z-score vs DMSO; higher = more thermally stabilized by treatment; settings: HeLa, lipoamide concentration 100 µM
Procedure: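 Cellular thermal proteome profiling in HeLa cells. Cells were treated with 100 µM lipoamide for 1 h, with or without 1 mM arsenate for a further 1 h, then heated to ten temperatures (37-66.3 °C), and soluble protein was quantified by TMT mass spectrometry relative to 0.1% DMSO controls. The thermal stability score (sum of log2 fold changes minus the abundance score) was transformed to a z-score; mean of n = 3 experiments.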

potassium arsenate = compound: O=[As]([O-])(O)O.[K+] [potassium arsenate]; assay: as above; settings: HeLa; arsenate concentration 1 mM
Procedure: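 Cellular thermal proteome profiling in HeLa cells treated with 1 mM arsenate for 1 h (DMSO pretreatment), heated to ten temperatures (37-66.3 °C). Soluble protein was quantified by TMT mass spectrometry relative to DMSO controls; the thermal stability score was transformed to a z-score; mean of n = 3 experiments.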

[1] = arsenate co-treatment: 1 mM arsenate 1 h
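Also: each temperature applied for 3 min, abundance score taken as mean log2 fold change at the two lowest temperatures, z-score obtained by mean subtraction and division by SD.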

UniProt Q9NX38, sequence (Q9NX38 whole entry): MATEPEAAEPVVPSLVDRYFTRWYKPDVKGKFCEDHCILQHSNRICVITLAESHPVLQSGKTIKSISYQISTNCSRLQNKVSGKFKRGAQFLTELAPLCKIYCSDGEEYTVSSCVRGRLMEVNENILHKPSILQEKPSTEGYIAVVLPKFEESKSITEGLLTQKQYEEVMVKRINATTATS
UniProt Q9H425, sequence (Q9H425 whole entry): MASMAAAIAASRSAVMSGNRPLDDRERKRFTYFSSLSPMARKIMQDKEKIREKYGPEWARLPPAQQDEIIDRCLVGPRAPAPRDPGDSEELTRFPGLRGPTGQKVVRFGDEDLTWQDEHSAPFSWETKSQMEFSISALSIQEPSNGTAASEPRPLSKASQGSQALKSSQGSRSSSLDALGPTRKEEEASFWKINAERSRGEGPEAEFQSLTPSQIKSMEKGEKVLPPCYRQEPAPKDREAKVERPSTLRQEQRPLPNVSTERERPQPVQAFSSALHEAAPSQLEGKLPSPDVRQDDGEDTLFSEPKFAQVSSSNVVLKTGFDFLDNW
UniProt P40189, sequence (P40189 whole entry): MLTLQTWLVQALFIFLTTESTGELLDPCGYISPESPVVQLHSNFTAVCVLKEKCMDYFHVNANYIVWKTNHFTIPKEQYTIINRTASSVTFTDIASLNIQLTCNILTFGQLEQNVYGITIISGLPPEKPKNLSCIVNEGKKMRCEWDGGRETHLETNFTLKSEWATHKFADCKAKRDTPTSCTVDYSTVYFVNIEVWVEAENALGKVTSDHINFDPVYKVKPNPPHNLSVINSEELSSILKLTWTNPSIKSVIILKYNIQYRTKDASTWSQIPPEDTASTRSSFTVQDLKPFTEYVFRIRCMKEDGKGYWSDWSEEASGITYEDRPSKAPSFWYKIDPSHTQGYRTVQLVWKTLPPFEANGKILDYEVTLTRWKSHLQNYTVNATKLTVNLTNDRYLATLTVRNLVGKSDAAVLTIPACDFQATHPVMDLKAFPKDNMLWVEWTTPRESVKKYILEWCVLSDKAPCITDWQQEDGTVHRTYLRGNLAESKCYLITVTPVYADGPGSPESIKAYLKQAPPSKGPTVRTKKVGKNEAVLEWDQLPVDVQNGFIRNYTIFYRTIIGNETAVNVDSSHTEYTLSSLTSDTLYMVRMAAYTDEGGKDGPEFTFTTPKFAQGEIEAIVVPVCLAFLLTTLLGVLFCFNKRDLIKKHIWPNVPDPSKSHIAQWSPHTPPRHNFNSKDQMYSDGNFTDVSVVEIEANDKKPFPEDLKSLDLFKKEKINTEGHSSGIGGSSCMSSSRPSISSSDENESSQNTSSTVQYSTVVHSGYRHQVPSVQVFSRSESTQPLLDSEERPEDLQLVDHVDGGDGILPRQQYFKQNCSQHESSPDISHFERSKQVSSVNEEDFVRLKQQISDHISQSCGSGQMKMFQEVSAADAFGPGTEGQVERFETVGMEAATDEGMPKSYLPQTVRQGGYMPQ
UniProt P41236, sequence (P41236 whole entry): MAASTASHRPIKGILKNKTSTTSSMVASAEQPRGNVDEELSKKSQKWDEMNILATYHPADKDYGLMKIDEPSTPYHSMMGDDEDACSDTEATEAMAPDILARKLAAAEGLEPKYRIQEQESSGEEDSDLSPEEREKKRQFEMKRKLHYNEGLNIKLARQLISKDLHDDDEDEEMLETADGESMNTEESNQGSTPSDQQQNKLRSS
UniProt P42126, sequence (P42126 whole entry): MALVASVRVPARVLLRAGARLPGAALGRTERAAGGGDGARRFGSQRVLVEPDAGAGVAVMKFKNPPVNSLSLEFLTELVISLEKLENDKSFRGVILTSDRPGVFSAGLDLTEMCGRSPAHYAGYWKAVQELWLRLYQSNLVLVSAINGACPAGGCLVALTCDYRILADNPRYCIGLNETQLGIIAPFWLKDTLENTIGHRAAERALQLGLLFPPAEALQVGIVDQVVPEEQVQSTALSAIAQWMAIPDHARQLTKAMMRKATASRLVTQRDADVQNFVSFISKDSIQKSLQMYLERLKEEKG
UniProt Q15397, sequence (Q15397 whole entry): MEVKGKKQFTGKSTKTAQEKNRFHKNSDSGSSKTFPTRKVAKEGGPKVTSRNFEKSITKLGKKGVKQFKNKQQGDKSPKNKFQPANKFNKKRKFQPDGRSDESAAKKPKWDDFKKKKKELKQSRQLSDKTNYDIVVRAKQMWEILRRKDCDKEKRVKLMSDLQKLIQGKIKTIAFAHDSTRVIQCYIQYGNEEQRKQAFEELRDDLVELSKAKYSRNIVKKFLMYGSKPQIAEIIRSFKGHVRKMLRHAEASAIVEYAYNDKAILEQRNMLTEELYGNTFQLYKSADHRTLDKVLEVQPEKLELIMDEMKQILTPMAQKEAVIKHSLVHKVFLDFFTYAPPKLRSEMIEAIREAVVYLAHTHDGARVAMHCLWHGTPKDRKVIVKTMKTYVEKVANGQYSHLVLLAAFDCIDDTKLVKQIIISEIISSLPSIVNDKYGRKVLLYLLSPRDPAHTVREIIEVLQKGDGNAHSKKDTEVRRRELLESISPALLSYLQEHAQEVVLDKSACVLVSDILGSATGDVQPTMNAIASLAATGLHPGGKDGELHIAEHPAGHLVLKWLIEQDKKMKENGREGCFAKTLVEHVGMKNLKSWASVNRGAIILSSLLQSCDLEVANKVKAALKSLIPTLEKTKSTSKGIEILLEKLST
UniProt Q9Y5Z4, sequence (Q9Y5Z4 whole entry): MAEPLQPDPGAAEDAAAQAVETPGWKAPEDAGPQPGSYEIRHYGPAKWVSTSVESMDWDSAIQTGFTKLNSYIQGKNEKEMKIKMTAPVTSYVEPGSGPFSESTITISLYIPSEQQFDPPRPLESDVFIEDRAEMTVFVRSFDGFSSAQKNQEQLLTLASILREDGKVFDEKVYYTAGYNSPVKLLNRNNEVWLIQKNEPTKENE
UniProt P46020, sequence (P46020 whole entry): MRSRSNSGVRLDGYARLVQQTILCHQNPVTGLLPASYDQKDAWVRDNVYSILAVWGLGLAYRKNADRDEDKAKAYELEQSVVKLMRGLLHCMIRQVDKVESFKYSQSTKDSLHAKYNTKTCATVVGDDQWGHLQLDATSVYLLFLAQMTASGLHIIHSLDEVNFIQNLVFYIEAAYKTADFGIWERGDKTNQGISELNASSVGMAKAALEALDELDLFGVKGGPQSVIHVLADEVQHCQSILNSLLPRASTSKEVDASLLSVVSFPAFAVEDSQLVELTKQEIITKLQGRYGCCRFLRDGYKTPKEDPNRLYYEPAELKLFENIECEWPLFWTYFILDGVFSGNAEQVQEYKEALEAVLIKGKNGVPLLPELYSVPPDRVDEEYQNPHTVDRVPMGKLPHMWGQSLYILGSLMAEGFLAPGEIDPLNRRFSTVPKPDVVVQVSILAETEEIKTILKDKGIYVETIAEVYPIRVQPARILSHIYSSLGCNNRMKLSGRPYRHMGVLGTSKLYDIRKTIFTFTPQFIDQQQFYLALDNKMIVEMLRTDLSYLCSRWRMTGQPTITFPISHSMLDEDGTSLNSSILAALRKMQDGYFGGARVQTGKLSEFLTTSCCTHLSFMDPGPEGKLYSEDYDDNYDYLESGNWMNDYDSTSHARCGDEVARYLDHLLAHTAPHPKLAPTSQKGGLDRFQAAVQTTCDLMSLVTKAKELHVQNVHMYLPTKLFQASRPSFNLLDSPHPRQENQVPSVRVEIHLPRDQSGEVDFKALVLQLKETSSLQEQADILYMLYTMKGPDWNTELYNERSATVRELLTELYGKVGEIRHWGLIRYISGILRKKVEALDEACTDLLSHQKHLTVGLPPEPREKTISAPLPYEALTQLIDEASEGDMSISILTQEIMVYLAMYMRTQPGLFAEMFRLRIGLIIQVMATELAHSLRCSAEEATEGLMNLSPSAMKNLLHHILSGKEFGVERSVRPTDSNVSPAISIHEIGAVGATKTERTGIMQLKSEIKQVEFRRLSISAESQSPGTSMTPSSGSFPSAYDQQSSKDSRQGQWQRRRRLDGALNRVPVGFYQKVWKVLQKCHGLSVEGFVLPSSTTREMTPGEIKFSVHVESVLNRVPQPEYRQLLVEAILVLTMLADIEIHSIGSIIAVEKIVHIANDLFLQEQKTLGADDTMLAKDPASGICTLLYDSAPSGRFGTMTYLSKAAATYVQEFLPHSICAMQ
UniProt Q8IWX8, sequence (Q8IWX8 whole entry): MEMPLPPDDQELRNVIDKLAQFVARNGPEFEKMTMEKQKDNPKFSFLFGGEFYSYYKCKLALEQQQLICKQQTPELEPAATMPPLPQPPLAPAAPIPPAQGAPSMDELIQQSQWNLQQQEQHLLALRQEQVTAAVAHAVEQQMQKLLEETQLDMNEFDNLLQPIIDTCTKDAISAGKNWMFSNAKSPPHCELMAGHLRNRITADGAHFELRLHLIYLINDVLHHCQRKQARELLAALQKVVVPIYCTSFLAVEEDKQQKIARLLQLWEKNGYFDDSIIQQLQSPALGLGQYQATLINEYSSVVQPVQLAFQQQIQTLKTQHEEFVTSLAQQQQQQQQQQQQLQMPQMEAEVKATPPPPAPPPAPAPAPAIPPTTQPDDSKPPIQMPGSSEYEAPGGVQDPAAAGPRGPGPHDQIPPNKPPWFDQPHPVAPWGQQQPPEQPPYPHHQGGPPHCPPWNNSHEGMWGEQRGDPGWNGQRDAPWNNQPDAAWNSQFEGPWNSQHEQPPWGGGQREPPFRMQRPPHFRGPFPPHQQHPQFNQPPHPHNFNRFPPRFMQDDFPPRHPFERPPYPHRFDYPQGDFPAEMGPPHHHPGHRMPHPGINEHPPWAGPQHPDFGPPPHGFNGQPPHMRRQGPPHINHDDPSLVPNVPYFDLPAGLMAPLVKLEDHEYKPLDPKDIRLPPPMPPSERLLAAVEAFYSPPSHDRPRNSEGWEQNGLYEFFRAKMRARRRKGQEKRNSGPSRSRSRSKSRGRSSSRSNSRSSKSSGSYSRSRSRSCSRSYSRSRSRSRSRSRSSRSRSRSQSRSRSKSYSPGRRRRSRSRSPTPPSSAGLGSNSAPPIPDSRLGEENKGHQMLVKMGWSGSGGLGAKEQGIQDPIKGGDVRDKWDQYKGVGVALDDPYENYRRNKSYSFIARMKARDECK

Target | thermal stability z-score (lipoamide; [1]) | thermal stability z-score (lipoamide; arsenate co-treatment: none) | thermal stability z-score (potassium arsenate)
HACD1 (UniProt B0YJ81) | -0.754 | -1.15 | -0.388
GOLT1B (UniProt Q9Y3E0) | 0.0321 | 0.0691 | -0.117
AKAP10 (UniProt O43572) | -0.128 | -0.105 | -0.229
CBX8 (UniProt Q9HC52) | 0.035 | 0.14 | -0.0579
ZFAND3 (UniProt Q9H8U3) | 0.918 | 0.518 | -1.25
ZHX3 (UniProt Q9H4I2) | -0.187 | -0.116 | -0.227
MRPL17 (UniProt Q9NRX2) | 0.0551 | 0.00699 | -0.206
PRPS2 (UniProt P11908) | 0.114 | -0.199 | -1.24
SEC61B (UniProt P60468) | 0.911 | 0.44 | 0.265
HEBP2 (UniProt Q9Y5Z4) | 0.891 | 0.694 | 0.0122
FAM206A (UniProt Q9NX38) | -0.0394 | -0.233 | 0.249
MYH9 (UniProt P35579) | 0.442 | 0.363 | 0.2
NMD3 (UniProt Q96D46) | 0.204 | 0.115 | -0.0507
MRPS9 (UniProt P82933) | 0.316 | 0.203 | 0.195
FYCO1 (UniProt Q9BQS8) | -0.321 | -0.354 | -0.152
NDRG3 (UniProt Q9UGV2) | -0.101 | -0.269 | -1.65
RTF1 (UniProt Q92541) | 0.13 | 0.0546 | -0.323
HSPG2 (UniProt P98160) | 0.252 | 0.126 | 2.43
LIMD1 (UniProt Q9UGP4) | -1.08 | -0.705 | -5.26
EIF3H (UniProt O15372) | -0.579 | -0.608 | 0.162
UBE3C (UniProt Q15386) | -0.19 | 0.18 | 0.79
PHKA1 (UniProt P46020) | -0.125 | -0.051 | 0.0887
PRMT7 (UniProt Q9NVM4) | -0.363 | 0.259 | 1.47
SH3BP4 (UniProt Q9P0V3) | 0.0947 | 0.0993 | -0.0405
NDUFAF3 (UniProt Q9BU61) | -0.122 | -0.105 | -0.147
CHMP1B (UniProt Q7LBR1) | -0.234 | 0.171 | 0.0259
MRPL15 (UniProt Q9P015) | -0.144 | -0.0219 | -0.33
ECI1 (UniProt P42126) | 0.859 | 0.555 | 0.59

Target | thermal stability z-score (lipoamide; [1]) | thermal stability z-score (lipoamide; arsenate co-treatment: none) | thermal stability z-score (potassium arsenate)
METTL15 (UniProt A6NJ78) | 0.0439 | -0.103 | 0.348
PPP1R2 (UniProt P41236) | 0.658 | 0.619 | 0.183
EXOSC8 (UniProt Q96B26) | 0.692 | -0.359 | -0.573
FAM20B (UniProt O75063) | -1.35 | -1.05 | 0.335
ROR2 (UniProt Q01974) | 0.3 | 0.449 | -0.811
PBLD (UniProt P30039) | -0.0252 | -0.218 | -0.578
TCEB3 (UniProt Q14241) | -0.0069 | 0.00902 | 0.0043
SH3GL1 (UniProt Q99961) | -0.0464 | 0.144 | 0.538
YTHDF3 (UniProt Q7Z739) | -0.486 | 0.111 | 0.174
CDK5RAP1 (UniProt Q96SZ6) | 0.128 | 0.198 | 0.157
SP1 (UniProt P08047) | -0.0425 | -0.199 | 0.789
CPT1A (UniProt P50416) | -0.189 | -0.268 | -0.161
RIPK2 (UniProt O43353) | -0.255 | 0.45 | -0.644
PUM3 (UniProt Q15397) | 0.119 | -0.0918 | 0.369
LDHB (UniProt P07195) | 0.679 | 0.658 | 0.13
C1ORF198 (UniProt Q9H425) | -0.254 | 0.135 | 0.635
TAB1 (UniProt Q15750) | -0.188 | -0.291 | -0.294
TMEM59 (UniProt Q9BXS4) | -1.01 | -0.383 | -0.0618
CWC27 (UniProt Q6UX04) | 0.0242 | -0.348 | -0.344
IL6ST (UniProt P40189) | -1.74 | -1 | -1.84
DNAJB11 (UniProt Q9UBS4) | -2.65 | -2.51 | 0.319
CHERP (UniProt Q8IWX8) | 0.00336 | 0.0908 | -0.107
POLR1D | -0.0835 | -0.377 | -1.73
PRPF19 (UniProt Q9UMS4) | 1.23 | 0.686 | -0.692
DENND4B (UniProt O75064) | 0.182 | -0.0196 | 0.288
EDEM3 (UniProt Q9BZQ6) | -3.5 | -2.77 | 0.485
CPPED1 (UniProt Q9BRF8) | -0.0195 | 0.348 | 0.792

Source: the supplement of paper PMC12463676, “Small-molecule dissolution of stress granules by redox modulation benefits ALS models” (Nature Chemical Biology, 2025)
